Measured values: the NIST ThermoML archive (doi:10.1016/j.jct.2008.10.010)

Experiment: molar heat capacity at constant pressure; xn = mol fraction of the nth substance listed
Settings: 101.3 kPa, Liquid, Small sample (50 mg) DSC

CCC(C)(C)O [2-methylbutan-2-ol] + CCCCCCC
Settings | molar heat capacity at constant pressure [J/K/mol]
327.15 K, x1 = 0.1547 | 258.26
327.15 K, x1 = 0.2993 | 269.94
327.15 K, x1 = 0.4051 | 274.66
327.15 K, x1 = 0.4986 | 277.47
327.15 K, x1 = 0.5981 | 279.08
327.15 K, x1 = 0.7015 | 280.02
327.15 K, x1 = 0.8023 | 279.59
327.15 K, x1 = 0.9139 | 278.56
327.15 K, x1 = 0.9609 | 277.44
328.15 K, x1 = 0.0061 | 236.22
328.15 K, x1 = 0.0249 | 237.72
328.15 K, x1 = 0.0494 | 242.15
328.15 K, x1 = 0.1 | 251.24
328.15 K, x1 = 0.1547 | 258.56
328.15 K, x1 = 0.1999 | 263.19
328.15 K, x1 = 0.2993 | 270.46
328.15 K, x1 = 0.4051 | 275.23
328.15 K, x1 = 0.4986 | 278.16
328.15 K, x1 = 0.5981 | 279.9
328.15 K, x1 = 0.7015 | 280.91
328.15 K, x1 = 0.8023 | 280.5
328.15 K, x1 = 0.9139 | 279.46
328.15 K, x1 = 0.9609 | 278.39
329.14 K, x1 = 0.0061 | 236.63
329.14 K, x1 = 0.0249 | 238.11
329.14 K, x1 = 0.0494 | 242.34
329.14 K, x1 = 0.1 | 251.42
329.14 K, x1 = 0.1547 | 258.8
329.14 K, x1 = 0.1999 | 263.54
329.14 K, x1 = 0.2993 | 270.92
329.14 K, x1 = 0.4051 | 275.78
329.14 K, x1 = 0.4986 | 278.83
329.14 K, x1 = 0.5981 | 280.59
329.14 K, x1 = 0.7015 | 281.67
329.14 K, x1 = 0.8023 | 281.37
329.14 K, x1 = 0.9139 | 280.33
329.14 K, x1 = 0.9609 | 279.29
330.14 K, x1 = 0.0061 | 237.14
330.14 K, x1 = 0.1 | 251.61
330.14 K, x1 = 0.1547 | 259.04
330.14 K, x1 = 0.2993 | 271.42
330.14 K, x1 = 0.4986 | 279.45
330.14 K, x1 = 0.5981 | 281.32
330.14 K, x1 = 0.7015 | 282.46
330.14 K, x1 = 0.8023 | 282.14
330.14 K, x1 = 0.9139 | 281.17
330.14 K, x1 = 0.9609 | 280.09
330.15 K, x1 = 0.0249 | 238.44
330.15 K, x1 = 0.0494 | 242.58
330.15 K, x1 = 0.1999 | 263.87
330.15 K, x1 = 0.4051 | 276.4
331.15 K, x1 = 0.0061 | 237.49
331.15 K, x1 = 0.0249 | 238.7
331.15 K, x1 = 0.0494 | 242.66
331.15 K, x1 = 0.1 | 251.73
331.15 K, x1 = 0.1547 | 259.17
331.15 K, x1 = 0.1999 | 264.08
331.15 K, x1 = 0.2993 | 271.78
331.15 K, x1 = 0.4051 | 276.82
331.15 K, x1 = 0.4986 | 280.03
331.15 K, x1 = 0.5981 | 282
331.15 K, x1 = 0.7015 | 283.13
331.15 K, x1 = 0.8023 | 282.9
331.15 K, x1 = 0.9139 | 281.93
331.15 K, x1 = 0.9609 | 280.9
332.11 K, x1 = 0.4051 | 277.29
332.14 K, x1 = 0.0061 | 237.91
332.14 K, x1 = 0.0249 | 239.06
332.14 K, x1 = 0.0494 | 242.88
332.14 K, x1 = 0.1 | 251.74
332.14 K, x1 = 0.1547 | 259.34
332.14 K, x1 = 0.1999 | 264.36
332.14 K, x1 = 0.2993 | 272.13
332.14 K, x1 = 0.4986 | 280.59
332.14 K, x1 = 0.5981 | 282.58
332.14 K, x1 = 0.7015 | 283.9
332.14 K, x1 = 0.8023 | 283.62
332.14 K, x1 = 0.9139 | 282.68
332.14 K, x1 = 0.9609 | 281.66
333.14 K, x1 = 0.0061 | 238.38
333.14 K, x1 = 0.0249 | 239.45
333.14 K, x1 = 0.0494 | 243.08
333.14 K, x1 = 0.1 | 251.95
333.14 K, x1 = 0.1547 | 259.59
333.14 K, x1 = 0.1999 | 264.68
333.14 K, x1 = 0.2993 | 272.54
333.14 K, x1 = 0.4051 | 277.88
333.14 K, x1 = 0.4986 | 281.17
333.14 K, x1 = 0.7015 | 284.62
333.14 K, x1 = 0.8023 | 284.48
333.14 K, x1 = 0.9139 | 283.56
333.14 K, x1 = 0.9609 | 282.52
333.15 K, x1 = 0.5981 | 283.29
334.04 K, x1 = 0.0249 | 239.87
334.15 K, x1 = 0.0061 | 238.94
334.15 K, x1 = 0.0494 | 243.42
334.15 K, x1 = 0.1 | 252.08
334.15 K, x1 = 0.1547 | 259.81
334.15 K, x1 = 0.1999 | 264.99
334.15 K, x1 = 0.2993 | 272.99
334.15 K, x1 = 0.4051 | 278.43
334.15 K, x1 = 0.4986 | 281.83
334.15 K, x1 = 0.5981 | 284.02
334.15 K, x1 = 0.7015 | 285.36
334.15 K, x1 = 0.8023 | 285.27
334.15 K, x1 = 0.9139 | 284.32
334.15 K, x1 = 0.9609 | 283.36
334.33 K, x1 = 0.0249 | 239.98
335.14 K, x1 = 0.0061 | 239.28
335.14 K, x1 = 0.0249 | 240.2
335.14 K, x1 = 0.0494 | 243.54
335.14 K, x1 = 0.1 | 252.23
335.14 K, x1 = 0.1547 | 259.88
335.14 K, x1 = 0.1999 | 265.1
335.14 K, x1 = 0.2993 | 273.19
335.14 K, x1 = 0.4051 | 278.76
335.14 K, x1 = 0.4986 | 282.26
335.14 K, x1 = 0.5981 | 284.55
335.14 K, x1 = 0.7015 | 286
335.14 K, x1 = 0.8023 | 285.89
335.14 K, x1 = 0.9139 | 285.08
335.14 K, x1 = 0.9609 | 284.15
336.14 K, x1 = 0.0061 | 239.67
336.14 K, x1 = 0.0249 | 240.6
336.14 K, x1 = 0.0494 | 243.78
